# Key:
# [1] = tested on: BaF3 (EGFR Del19/T790M/C797S); test: Cell proliferation IC50 assay (Cell Titer GLO), BaF3 DTC cells; assay type: cell-based; conditions: Mus musculus, Ba/F3 EGFR-Del19/T790M/C797S, Table 6, 72 h
# Procedure: (§1) IC50 of compounds in the present invention was determined by Cell Titer GLO reagent from Promega. The procedures are as follows:
# (§2) Tumor cells were cultured in specified medium in an incubator at 37° C. and 5% CO2. The cells were passaged periodically. Cells at the logarithmic growth phase were collected for plating at a density of 2000-4000 cells/well. The next day, the compounds of the present invention were serially diluted and added to the cells, with DMSO being the negative control and the culture media without cells being the blank control. The plate was incubated in the incubator for 72 h. The cell viability assay was performed by adding the detection reagents to the cell culture media according to Cell Titer GLO reagent instructions and detecting luminescent signals on an EnVision microplate reader (PerkinElmer).
# (§3) Inhibition of cell growth by the compounds of the present invention was plotted by Prism Graphpad software for statistically calculating the IC50 of the compound of the present invention.
# [2] = tested on: BaF3 (EGFR L858R/T790M/C797S); test: Cell proliferation IC50 assay (Cell Titer GLO), BaF3 LTC cells; assay type: cell-based; conditions: Mus musculus, Ba/F3 EGFR, Table 6, 72 h
# Procedure: as §1, §2, §3
# BaF3 (EGFR Del19/C797S) = molecular target: T1, BaF3 (EGFR Del19/C797S) (Homo sapiens, UniProt P00533, C797S, cells depend on it, form not given); test: Cell proliferation IC50 assay (Cell Titer GLO), BaF3 DC cells; assay type: cell-based, mouse; conditions: Table 6, 72 h
# T1 construct: BaF3 (EGFR Del19/C797S)|DC|RPMI1640 + 10% FBS
# Procedure: as §1, §2, §3
# BaF3 (EGFR WT) = test: Cell proliferation IC50 assay (Cell Titer GLO), BaF3 WT cells; assay type: cell-based; conditions: Mus musculus, Ba/F3 EGFR, Table 6, 10 ng/ml EGF, 72 h
# Procedure: as §1, §2, §3
# A431 = test: Cell proliferation IC50 assay (Cell Titer GLO), A431 cells; assay type: cell-based; conditions: Homo sapiens, A-431; Table 6; A431, 72 h; read-out: A431 IC50
# Procedure: as §1, §2, §3
# T1 sequence (P00533 with tags, fused parts or gaps DEL746-750/C797S, form open): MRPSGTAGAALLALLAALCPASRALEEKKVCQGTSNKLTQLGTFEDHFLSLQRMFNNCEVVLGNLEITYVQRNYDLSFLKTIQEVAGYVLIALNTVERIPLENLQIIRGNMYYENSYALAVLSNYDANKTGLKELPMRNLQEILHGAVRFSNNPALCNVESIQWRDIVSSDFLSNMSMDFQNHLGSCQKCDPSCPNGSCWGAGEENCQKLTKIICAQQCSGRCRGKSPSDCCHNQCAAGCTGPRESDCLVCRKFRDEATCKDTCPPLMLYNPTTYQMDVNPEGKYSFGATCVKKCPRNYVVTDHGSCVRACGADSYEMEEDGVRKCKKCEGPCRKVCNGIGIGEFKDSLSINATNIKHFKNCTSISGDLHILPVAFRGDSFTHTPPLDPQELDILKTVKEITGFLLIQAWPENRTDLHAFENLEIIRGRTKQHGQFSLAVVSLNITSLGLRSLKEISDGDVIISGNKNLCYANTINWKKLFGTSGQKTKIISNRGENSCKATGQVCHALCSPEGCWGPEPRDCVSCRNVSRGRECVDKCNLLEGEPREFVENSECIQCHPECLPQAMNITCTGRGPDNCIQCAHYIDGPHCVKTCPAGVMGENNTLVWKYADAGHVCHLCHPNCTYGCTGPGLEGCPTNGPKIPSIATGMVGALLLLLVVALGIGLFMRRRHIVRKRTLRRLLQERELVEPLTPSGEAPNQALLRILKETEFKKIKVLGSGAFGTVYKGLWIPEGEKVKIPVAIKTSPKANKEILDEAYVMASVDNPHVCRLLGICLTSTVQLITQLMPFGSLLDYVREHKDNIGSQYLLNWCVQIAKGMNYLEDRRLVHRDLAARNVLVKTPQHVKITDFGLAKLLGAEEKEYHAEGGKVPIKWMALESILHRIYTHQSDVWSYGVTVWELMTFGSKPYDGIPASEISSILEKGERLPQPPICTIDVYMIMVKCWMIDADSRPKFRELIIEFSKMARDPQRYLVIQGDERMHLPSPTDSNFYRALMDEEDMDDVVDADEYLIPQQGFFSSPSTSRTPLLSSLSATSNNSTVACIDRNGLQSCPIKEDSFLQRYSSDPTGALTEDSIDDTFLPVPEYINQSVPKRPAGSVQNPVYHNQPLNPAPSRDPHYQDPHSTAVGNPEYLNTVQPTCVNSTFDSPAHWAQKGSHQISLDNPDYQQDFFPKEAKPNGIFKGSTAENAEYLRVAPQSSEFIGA
Compound,IC50 [1] [nM],IC50 [2] [nM],IC50 (BaF3 (EGFR Del19/C797S)) [nM],IC50 (BaF3 (EGFR WT)) [nM],IC50 (A431) [nM]
COc1cc(N2CCC(N3CCN(CCCCOc4cccc5c4CN(C4CCC(=O)NC4=O)C5=O)CC3)CC2)c(C2CC2)cc1Nc1ncc(Cl)c(Nc2ccccc2P(C)(C)=O)n1 (stereo not shown) [Example E35],5.59,25.7,8.9,2500,1640
COc1cc(N2CCC(N3CCC4(CCC(=Cc5cccc6c5CN(C5CCC(=O)NC5=O)C6=O)CC4)C3)CC2)c(C2CC2)cc1Nc1ncc(Cl)c(Nc2ccccc2P(C)(C)=O)n1 (stereo not shown) [Example E36],9.49,24.7,3.1,541,1130
CCc1cc(Nc2ncc(Cl)c(Nc3ccccc3P(C)(C)=O)n2)c(OC)cc1N1CCC(N2CCN(CC/C=C\c3cccc4c3CN(C3CCC(=O)NC3=O)C4=O)CC2)CC1 (stereo not shown) [Example E37],4.84,15.3,3.1,1070,1210
CCc1cc(Nc2ncc(Cl)c(Nc3ccccc3P(C)(C)=O)n2)c(OC)cc1N1CCC(N2CCN(CCCCCc3ccc4c(c3)CN(C3CCC(=O)NC3=O)C4=O)CC2)CC1 (stereo not shown) [Example E38],6.23,16.5,3.4,461,1020
CCc1cc(Nc2ncc(Cl)c(Nc3ccccc3P(C)(C)=O)n2)c(Cl)cc1N1CCC(N2CCN(CCC#Cc3cccc4c3CN(C3CCC(=O)NC3=O)C4=O)CC2)CC1 (stereo not shown) [Example E46],10.1,17.7,9.2,1200,1610
CCc1cc(Nc2ncc(Cl)c(Nc3ccccc3P(C)(C)=O)n2)c(OC)cc1N1CCC(N2CCN(C(=O)CCC#Cc3cccc4c3CN(C3CCC(=O)NC3=O)C4=O)CC2)CC1 (stereo not shown) [Example E50],21.9,58.1,12.6,1260,1350
CCc1cc(Nc2ncc(Cl)c(Nc3ccccc3P(C)(C)=O)n2)c(OC)cc1N1CCC(N2CCN(C3(CC#Cc4cccc5c4CN(C4CCC(=O)NC4=O)C5=O)CC3)CC2)CC1 (stereo not shown) [Example E57],72.5,456,22.1,> 4000,> 4000
COc1cc(N2CCC(N3CCN(CCC#Cc4cccc5c4CN(C4CCC(=O)NC4=O)C5=O)CC3)CC2)c(C(N)=O)cc1Nc1ncc(Cl)c(Nc2ccccc2P(C)(C)=O)n1 (stereo not shown) [Example E61],280,621,37.8,> 4000,> 4000
CCc1cc(Nc2ncc(Cl)c(Nc3ccc(C)c(C)c3P(C)(C)=O)n2)c(OC)cc1N1CCC(N2CCN(CCCCOc3cccc4c3CN(C3CCC(=O)NC3=O)C4=O)CC2)CC1 (stereo not shown) [Example E63],7.31,49.3,2.6,659,1150
CCc1cc(Nc2ncc(Cl)c(Nc3ccccc3P(C)(C)=O)n2)c(OC)cc1N1CCC(N2CCN(CCCCCc3ccc4c(N5CCC(=O)NC5=O)nn(C)c4c3)CC2)CC1 [Example E65],35.3,267,15.8,1730,1060
CCc1cc(Nc2ncc(Cl)c(Nc3ccccc3P(C)(C)=O)n2)c(OC)cc1N1CCC(N2CCN([C@H]3C[C@@H](Oc4cc5c(cc4F)C(=O)N(C4CCC(=O)NC4=O)C5)C3)CC2)CC1 (stereo partly shown) [Example E67],4.09,20.6,4.4,306,2490
CCc1cc(Nc2ncc(-c3cnn(C)c3)c(Nc3ccccc3P(C)(C)=O)n2)c(OC)cc1N1CCC(N2CCN([C@H]3C[C@@H](Oc4cccc5c4CN(C4CCC(=O)NC4=O)C5=O)C3)CC2)CC1 (stereo partly shown) [Example E69],15.3,114,0.7,168,344
COc1cc(N2CCC(N3CCc4cc(Oc5cccc6c5CN(C5CCC(=O)NC5=O)C6=O)ccc4C3)CC2)c(C2CC2)cc1Nc1ncc(Cl)c(Nc2ccccc2P(C)(C)=O)n1 (stereo not shown) [Example E75],26.3,64.2,20.2,80.3,> 4000
CCc1cc(Nc2ncc(Cl)c(Nc3ccccc3P(C)(C)=O)n2)cc(Cl)c1N1CCC(N2CCN(CCC#Cc3cccc4c3CN(C3CCC(=O)NC3=O)C4=O)CC2)CC1 (stereo not shown) [Example E77],16.3,44.6,13.5,67.6,651
